Source: patent US11773067B2, “(Trifluoromethyl)pyrimidine-2-amine compounds” (Eli Lilly and Company, priority 2020, dated 2023)
Like-named read-outs stand apart in the source and are kept apart here.

Experiments:
[1] = In Vivo Determination of Kp,uu,brain in Mice; set-up: species or system mouse; conditions: for Kp uu at 2 h / concentration at 2 h: male, mouse; for Kp uu at 2 h: C57Bl/6, brain/plasma; for concentration at 2 h: C57Bl/6, mouse, po
Description: In Vivo Determination of Kp,uu,brain in Mice
Unbound brain-to-plasma partition coefficient (Kp,uu,brain) is one of the key pharmacokinetic parameter for evaluating a compound's ability to cross the blood-brain barrier (BBB). It is typically measured in pre-clinical species using the following methodology. Kp,uu,brain values indicate the fraction of free drug in plasma that partitions across the BBB.
Subjects: The subjects for these studies are 12 male C57Bl/6 mice (Envigo, Indianapolis, IN, USA) between 8-10 weeks old at time of test. Mice are housed in groups of 4 in high density plastic home cages. Food and water is available ad libitum. The rooms are maintained at 73° F. with 30-70% relative humidity and kept on a light/dark cycle of 0600-1800 h. Agent: The compound of Example 2 is prepared at 0.3, 1, and 3 mg/ml in the 1% HEC, 0.25% TWEEN®80, 0.05% DOWSIL™ vehicle in water. Prepared compound is sonicated in water bath for 30 min until a suspension is formed. Mice are dosed at 10 ml/kg for a respective 3, 10 or 30 mg/kg dose. Dosing and Tissue Collection: For this experiment, four mice per dosing group receive oral dosing of either: 3, 10, or 30 mg/kg of the compound of Example 2. Mice are euthanized at 2 h post-dosing via CO2 asphyxiation, plasma samples are collected via cardia puncture, and mouse brains removed, weighed, and frozen on dry ice. Blood samples are stored in EDTA tubes on wet ice and centrifuged at 15 k rpm for 10 min. Plasma is collected, plated in a 96-well plate, and frozen at −80° C.
Pharmacokinetic sampling: Plasma and brain samples obtained are analyzed for Example 2 using an LC-MS/MS method (Q2 Solutions, Indianapolis, IN, USA). Plasma samples are extracted using protein precipitation. The lower limit of quantification is 25 ng/mL, and the upper limit of quantification is 5000 ng/mL. Brain samples are homogenized, and the analyte is extracted using protein precipitation. The lower limit of quantification is 4 ng/g and the upper limit of quantification is 200000 ng/g.
Analysis and Results: Kp,uu,brain is calculated for each time point from the expression below where individual components are derived from a combination of in vitro and in vivo measurements carried out as described above:
[formula] where Ctotal,brain, Cu,brain, Ctotal,plasma, and Cu,plasma are total and unbound brain and plasma concentrations, and fu,brain and fu,plasma are fractions unbound in brain and plasma, respectively.

human MrgX1 receptor = molecular target: T1, human MrgX1 receptor (Homo sapiens, UniProt Q96LB2); assay: IP1 Cellular Assay for EC50 Determination Against hMrgX1 by HTRF; format: cell-based; conditions: in presence of EC15 of BAM8-22; for EC50: HEK293 cells stably expressing hMrgX1, geometric mean (SEM, n), read-out: Relative EC50 (SEM, n)
T1 construct: expressed in transfected cells
Description: IP1 Cellular Assay for EC50 Determination Against hMrgX1 by HTRF
Cell plating: HEK293 cells stably expressing the recombinant human MrgX1 receptor are expanded in culture flasks (Corning, T150), using growth media containing DMEM with glutamine (GIBCO™, Cat. #11960-044) supplemented with 10% heat-inactivated FBS (HyClone™, Cat. #CH30073), 1% penicillin/streptomycin (HyClone™, Cat. #SV30010; 10,000 U/mL penicillin; 10,000 μg/mL streptomycin in 0.85% NaCl), 20 mM HEPES (GIBCO™, Cat. #15530122) and 0.3 mg/mL G418 (GIBCO™, Cat. #11811031). When cell monolayers achieve a level of 80-90% confluence, monolayers are washed once with 10 mL of DPBS (HyClone™, Cat. #14190-144), dissociated using TrypLE™ Express enzyme cell dissociation media (GIBCO™, Cat. #12605-010), and diluted by addition of 10 mL DPBS. Dissociated cells are transferred to a sterile 50 mL conical tube, pelleted by centrifugation at 300×g to remove the growth and dissociation media, and diluted to 1M cells/mL into DMEM for plating.
IP1 Potency and Efficacy Determination: Test compounds are dissolved in DMSO to a concentration of 10 mM and serially diluted in DMSO to obtain a 10-point concentration response stock dilution plate. Growth media is removed from the cell plate, and the stock 10-point dilution plate is diluted into media and stamped into the cell plate at a concentration 2× higher than the final test concentration of 30 μM maximum. The endogenous agonist […] (Tocris-BioScience® Cat. #1763) is diluted to the EC15, determined independently at a minimum of n=3, into the cell plate and incubated at room temperature for 120 min. Subsequently, half the volume each of anti-IP1 cryptate and d2-labeled IP1 in lysis buffer, supplied with the IP-One Gq Kit (CisBio Cat. #62IPAPEC) are added to the cell plate to initiate cell lysis, and incubated for 60 min at room temperature in the dark. At that point, fluorescence is determined at 620 and 665 nm (˜100 μs following laser excitation).
Data Analysis: Fluorescent ratios are determined as the ratio of the fluorescence emission at […] and converted to IP1 concentration, using the IP1 standard curve generated in a separate plate, following the manufacturer's instructions. The IP1 concentration is then plotted as a function of compound concentration. Potentiator potency (EC50) is defined as the compound concentration, in the presence of the EC15 of the endogenous agonist […], resulting in 50% of the increase in IP1 concentration achieved by a saturating concentration of […], and is determined by using Genedata software (GeneData AG, Basel Switzerland) fitting the following equation to the 10-point CRC, where y is the IP1 concentration determined for a given compound concentration, [L] denotes the concentration of test compound and Max is the maximum increase achieved by a saturating concentration of […]: Y=Max*[L]/(EC50+[L]) EC50 values are reported as the geometric mean in nM (SEM, n).

[2] = Plasma and brain homogenate protein binding by equilibrium dialysis; format: in vitro ADME, mouse
Description: Determination of plasma and brain protein binding: Mouse plasma and brain homogenate protein binding is determined in vitro using equilibrium dialysis, as described elsewhere [Zamek-Gliszczynski et al., J Pharm Sci, 101:1932-1940, 2012]. The results are reported as fraction unbound in plasma (fu,plasma) and brain (fu,brain) which are then utilized to calculate Kp,uu,brain as described below. Mouse fu,plasma and fu,brain of Example 2 are determined to be 0.0421 and 0.0181, respectively.

T1 sequence (Q96LB2 whole entry): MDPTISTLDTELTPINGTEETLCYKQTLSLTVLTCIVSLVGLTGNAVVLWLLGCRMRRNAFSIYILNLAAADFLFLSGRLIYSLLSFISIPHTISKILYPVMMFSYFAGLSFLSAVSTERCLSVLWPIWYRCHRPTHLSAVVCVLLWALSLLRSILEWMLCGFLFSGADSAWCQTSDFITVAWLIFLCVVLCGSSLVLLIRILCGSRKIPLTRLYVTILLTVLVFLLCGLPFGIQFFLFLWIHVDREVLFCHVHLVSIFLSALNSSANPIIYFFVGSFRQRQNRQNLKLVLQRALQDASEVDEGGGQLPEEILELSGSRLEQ

For `Nc1nc(Oc2c(F)cc(F)cc2F)cc(C(F)(F)F)n1` [Example 2, 4-(2,4,6-Trifluorophenoxy)-6-(trifluoromethyl)pyrimidin-2-amine], the “blood brain barrier crossing / central penetrance” value ([1]; 2 h post-oral administration in mice) was “crosses the blood brain barrier and has central penetrance”, the Kp uu at 2 h ([1]; 3 mg/kg oral) was 0.506 ± 0.107 and the Kp uu at 2 h ([1]; 10 mg/kg oral) was 0.586 ± 0.116. For the same compound, the Kp uu at 2 h ([1]; 30 mg/kg oral) was 0.601 ± 0.0553, the concentration at 2 h ([1]; brain, 3 mg/kg, 3 mg/kg oral, read-out: Total brain conc. (Ctotal,brain) ± SD) was 0.972 ± 0.353 µM and the concentration at 2 h ([1]; brain, 3 mg/kg, 3 mg/kg oral, using fu,brain 0.0181, read-out: Unbound brain conc. (Cu,brain) ± SD) was 0.0176 ± 0.00639 µM. The concentration at 2 h ([1]; brain, 10 mg/kg, 10 mg/kg oral, read-out: Total brain conc. (Ctotal,brain) ± SD) was 3.9 ± 1.8 µM, the concentration at 2 h ([1]; brain, 10 mg/kg, 10 mg/kg oral, using fu,brain 0.0181, read-out: Unbound brain conc. (Cu,brain) ± SD) was 0.0554 ± 0.0325 µM and the concentration at 2 h ([1]; brain, 30 mg/kg, 30 mg/kg oral, read-out: Total brain conc. (Ctotal,brain) ± SD) was 13.7 ± 4.2 µM. The concentration at 2 h ([1]; brain, 30 mg/kg, 30 mg/kg oral, using fu,brain 0.0181, read-out: Unbound brain conc. (Cu,brain) ± SD) was 0.248 ± 0.0759 µM, the concentration at 2 h ([1]; plasma, 3 mg/kg, 3 mg/kg oral, read-out: Total plasma conc. (Ctotal,plasma) ± SD) was 0.809 ± 0.14 µM and the concentration at 2 h ([1]; plasma, 3 mg/kg, 3 mg/kg oral, using fu,plasma 0.0421, read-out: Unbound plasma conc. (Cu,plasma) ± SD) was 0.0341 ± 0.00594 µM. For the same compound, the concentration at 2 h ([1]; plasma, 10 mg/kg, 10 mg/kg oral, read-out: Total plasma conc. (Ctotal,plasma) ± SD) was 2.77 ± 0.651 µM, the concentration at 2 h ([1]; plasma, 10 mg/kg, 10 mg/kg oral, using fu,plasma 0.0421, read-out: Unbound plasma conc. (Cu,plasma) ± SD) was 0.117 ± 0.0274 µM and the concentration at 2 h ([1]; plasma, 30 mg/kg, 30 mg/kg oral, read-out: Total plasma conc. (Ctotal,plasma) ± SD) was 9.7 ± 2.41 µM. For the same compound, the concentration at 2 h ([1]; plasma, 30 mg/kg, 30 mg/kg oral, using fu,plasma 0.0421, read-out: Unbound plasma conc. (Cu,plasma) ± SD) was 0.409 ± 0.101 µM, the EC50 (human MrgX1 receptor) was 0.061 µM and the fraction unbound ([2]; mouse brain homogenate, read-out: fraction unbound in brain (fu,brain)) was 0.0181. The fraction unbound ([2]; mouse plasma, read-out: fraction unbound in plasma (fu,plasma)) was 0.0421.

In the case of `Cc1c(Oc2c(F)cccc2F)nc(N)nc1C(F)(F)F` [Example 6, 4-(2,6-difluorophenoxy)-5-methyl-6-(trifluoromethyl)pyrimidin-2-amine], the EC50 (human MrgX1 receptor) is reported as 0.038 µM.

Work on `N#Cc1cc(F)c(Oc2cc(C(F)(F)F)nc(N)n2)c(F)c1` [Example 3, 4-[2-Amino-6-(trifluoromethyl)pyrimidin-4-yl]oxy-3,5-difluoro-benzonitrile] yielded an EC50 (human MrgX1 receptor) of 0.104 µM.

For `Cc1c(Oc2c(F)cc(C#N)cc2F)nc(N)nc1C(F)(F)F` [Example 5, 4-[2-Amino-5-methyl-6-(trifluoromethyl)pyrimidin-4-yl]oxy-3,5-difluoro-benzonitrile], the EC50 (human MrgX1 receptor) was 0.082 µM and the “Max (Mean ± SEM)” value (human MrgX1 receptor; maximum stimulation achieved in the assay) was 120 nM.

In the case of `Cc1c(Oc2c(F)cc(F)cc2F)nc(N)nc1C(F)(F)F` [Example 4, 5-Methyl-4-(trifluoromethyl)-6-(2,4,6-trifluorophenoxy)pyrimidin-2-amine], the EC50 (human MrgX1 receptor) is reported as 0.04 µM.

For `Nc1nc(Oc2c(F)cccc2F)cc(C(F)(F)F)n1` [Example 1, 4-(2,6-Difluorophenoxy)-6-(trifluoromethyl)pyrimidin-2-amine], the EC50 (human MrgX1 receptor) was 0.072 µM.
